This note sets out measurements from US20240158391A1, “DERIVATIVES OF 4-(IMIDAZO[1,2-A]PYRIDIN-3-YL)-N-(PYRIDIN-3-YL) PYRIMIDIN-2- AMINE FOR TREATING PROLIFERATIVE DISEASES AND CONDITIONS” (AUCENTRA THERAPEUTICS PTY LTD, priority 2019, published 2024).

One assay concerns the target CDK6/CyclinD3 (Homo sapiens, UniProt Q00534). As to the kind of experiment: ADP Glo kinase assay, CDK6/CyclinD3. The settings on record: for remaining activity at 1 µM: compound at 1 μM, read-out: Residual enzymatic activity (%) at 1 μM, CDK6 D3; for Ki: Km ATP, read-out: Enzymatic inhibition, Ki, CDK6 D3. The format is biochemical. How it is done:
(§1) Test compounds are used in 1:3 serial dilutions for 10 concentrations (from 10-0.0005 μM) in 0.5% DMSO. […] The kinase reactions are run for optimised time period at room temperature and then the reaction is stopped by adding 5 μL of ADP Glo reagent.
On the technique in general: ADP-Glo first removes unused ATP, then detects ADP through luciferase.

Another assay deals with CDK9/CyclinT1 (Homo sapiens, UniProt P50750). As to the kind of experiment: ADP Glo kinase assay, CDK9/CyclinT1. The class given is biochemical. As to conditions: CDK9/CyclinT1; Km ATP; read-out: Enzymatic inhibition, Ki, CDK9 T1. How it is done:
as §1

The subject of another assay is MV-4-11. As to the kind of experiment: Proliferation assay (resazurin, leukemia cell lines), MV-4-11. The format is cell-based. The settings on record: Homo sapiens, MV4-11, read-out: 72 h Growth inhibition GI50, MV-4-11 cells. An excerpt:
The following compounds were used as comparators.
(Alamar Blue is a resazurin reagent that responds to reducing activity.)

In a further assay the target is CDK4/CyclinD1 (Homo sapiens, UniProt P11802). As to the kind of experiment: ADP Glo kinase assay, CDK4/CyclinD1. The class given is biochemical. The settings on record: for remaining activity at 1 µM: compound at 1 μM, read-out: Residual enzymatic activity (%) at 1 μM, CDK4 D1; for Ki: Km ATP, read-out: Enzymatic inhibition, Ki, CDK4 D1. How it is done:
as §1

In a further assay the target is CDK7/CyclinH/Mat1 (Homo sapiens, UniProt P50613). As to the kind of experiment: ADP Glo kinase assay, CDK7/CyclinH/Mat1. The class given is biochemical. As to conditions: for remaining activity at 1 µM: compound at 1 μM, read-out: Residual enzymatic activity (%) at 1 μM, CDK7 H; for Ki: Km ATP, read-out: Enzymatic inhibition, Ki, CDK7 H. The procedure: as §1
CDK7/CyclinH/Mat1, sequence (P50613 whole entry, species assumed): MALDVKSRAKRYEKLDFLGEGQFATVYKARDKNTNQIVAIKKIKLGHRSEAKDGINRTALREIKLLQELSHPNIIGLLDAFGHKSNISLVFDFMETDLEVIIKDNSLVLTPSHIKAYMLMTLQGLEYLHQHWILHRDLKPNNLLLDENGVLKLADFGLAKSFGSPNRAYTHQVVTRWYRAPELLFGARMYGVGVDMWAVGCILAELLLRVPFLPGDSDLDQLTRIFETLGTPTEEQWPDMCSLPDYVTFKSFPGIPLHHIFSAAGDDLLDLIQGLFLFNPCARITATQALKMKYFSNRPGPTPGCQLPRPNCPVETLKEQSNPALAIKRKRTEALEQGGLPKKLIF
CDK7/CyclinH/Mat1, sequence (P51946 whole entry partner, species assumed): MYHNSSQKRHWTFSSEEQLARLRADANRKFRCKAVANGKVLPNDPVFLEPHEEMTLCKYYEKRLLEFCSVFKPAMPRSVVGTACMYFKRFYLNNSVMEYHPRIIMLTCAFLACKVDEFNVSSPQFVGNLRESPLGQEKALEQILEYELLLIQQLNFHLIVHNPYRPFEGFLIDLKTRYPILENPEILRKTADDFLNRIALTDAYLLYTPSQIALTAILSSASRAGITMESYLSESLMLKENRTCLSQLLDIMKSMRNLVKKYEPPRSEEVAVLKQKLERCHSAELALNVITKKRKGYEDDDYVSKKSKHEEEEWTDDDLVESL
CDK7/CyclinH/Mat1, sequence (P51948 whole entry partner, species assumed): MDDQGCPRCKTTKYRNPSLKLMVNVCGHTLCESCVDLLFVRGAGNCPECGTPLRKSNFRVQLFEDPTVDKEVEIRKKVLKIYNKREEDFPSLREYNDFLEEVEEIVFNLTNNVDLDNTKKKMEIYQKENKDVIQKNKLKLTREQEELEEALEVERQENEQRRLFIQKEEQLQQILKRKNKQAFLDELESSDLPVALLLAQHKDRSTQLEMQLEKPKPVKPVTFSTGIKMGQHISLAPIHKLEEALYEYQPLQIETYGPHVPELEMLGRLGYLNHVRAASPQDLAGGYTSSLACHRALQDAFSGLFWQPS
Another assay concerns the target CDK2/CyclinA2 (Homo sapiens, UniProt P24941). As to the kind of experiment: ADP Glo kinase assay, CDK2/CyclinA2. The class given is biochemical. The settings on record: for remaining activity at 1 µM: compound at 1 μM, read-out: Residual enzymatic activity (%) at 1 μM, CDK2 A; for Ki: Km ATP, read-out: Enzymatic inhibition, Ki, CDK2 A. The procedure: as §1
The target in a further assay is CDK1/CyclinB (Homo sapiens, UniProt P06493). As to the kind of experiment: ADP Glo kinase assay, CDK1/CyclinB. The settings on record: for remaining activity at 1 µM: compound at 1 μM, read-out: Residual enzymatic activity (%) at 1 μM, CDK1 B; for Ki: Km ATP, read-out: Enzymatic inhibition, Ki, CDK1 B. The class given is biochemical. The procedure: as §1
CDK1/CyclinB, sequence (P06493 whole entry, species assumed): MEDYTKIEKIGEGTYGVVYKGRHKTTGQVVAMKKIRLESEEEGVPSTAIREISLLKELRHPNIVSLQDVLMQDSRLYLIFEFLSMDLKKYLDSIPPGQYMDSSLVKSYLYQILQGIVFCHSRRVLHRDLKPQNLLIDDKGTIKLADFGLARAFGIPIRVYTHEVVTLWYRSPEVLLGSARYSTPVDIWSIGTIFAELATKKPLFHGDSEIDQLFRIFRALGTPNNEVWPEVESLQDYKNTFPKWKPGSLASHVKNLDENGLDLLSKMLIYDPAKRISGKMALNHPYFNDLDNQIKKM
CDK1/CyclinB, sequence (P14635 whole entry partner, species assumed): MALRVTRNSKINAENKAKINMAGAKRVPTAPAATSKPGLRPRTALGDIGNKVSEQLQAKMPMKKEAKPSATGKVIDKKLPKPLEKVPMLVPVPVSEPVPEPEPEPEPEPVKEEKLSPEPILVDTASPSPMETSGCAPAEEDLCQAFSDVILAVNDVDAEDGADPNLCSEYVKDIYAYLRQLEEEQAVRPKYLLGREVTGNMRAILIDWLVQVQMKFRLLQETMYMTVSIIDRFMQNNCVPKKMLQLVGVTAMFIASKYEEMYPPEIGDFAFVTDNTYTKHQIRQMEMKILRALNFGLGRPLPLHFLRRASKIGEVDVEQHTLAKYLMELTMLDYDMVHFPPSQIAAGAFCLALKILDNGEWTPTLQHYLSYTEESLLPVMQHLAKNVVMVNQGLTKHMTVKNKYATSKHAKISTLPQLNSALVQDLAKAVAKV
For another assay, the target named is T1, FLT3-ITD (Homo sapiens, UniProt P36888).
T1 sequence (P36888 1-993): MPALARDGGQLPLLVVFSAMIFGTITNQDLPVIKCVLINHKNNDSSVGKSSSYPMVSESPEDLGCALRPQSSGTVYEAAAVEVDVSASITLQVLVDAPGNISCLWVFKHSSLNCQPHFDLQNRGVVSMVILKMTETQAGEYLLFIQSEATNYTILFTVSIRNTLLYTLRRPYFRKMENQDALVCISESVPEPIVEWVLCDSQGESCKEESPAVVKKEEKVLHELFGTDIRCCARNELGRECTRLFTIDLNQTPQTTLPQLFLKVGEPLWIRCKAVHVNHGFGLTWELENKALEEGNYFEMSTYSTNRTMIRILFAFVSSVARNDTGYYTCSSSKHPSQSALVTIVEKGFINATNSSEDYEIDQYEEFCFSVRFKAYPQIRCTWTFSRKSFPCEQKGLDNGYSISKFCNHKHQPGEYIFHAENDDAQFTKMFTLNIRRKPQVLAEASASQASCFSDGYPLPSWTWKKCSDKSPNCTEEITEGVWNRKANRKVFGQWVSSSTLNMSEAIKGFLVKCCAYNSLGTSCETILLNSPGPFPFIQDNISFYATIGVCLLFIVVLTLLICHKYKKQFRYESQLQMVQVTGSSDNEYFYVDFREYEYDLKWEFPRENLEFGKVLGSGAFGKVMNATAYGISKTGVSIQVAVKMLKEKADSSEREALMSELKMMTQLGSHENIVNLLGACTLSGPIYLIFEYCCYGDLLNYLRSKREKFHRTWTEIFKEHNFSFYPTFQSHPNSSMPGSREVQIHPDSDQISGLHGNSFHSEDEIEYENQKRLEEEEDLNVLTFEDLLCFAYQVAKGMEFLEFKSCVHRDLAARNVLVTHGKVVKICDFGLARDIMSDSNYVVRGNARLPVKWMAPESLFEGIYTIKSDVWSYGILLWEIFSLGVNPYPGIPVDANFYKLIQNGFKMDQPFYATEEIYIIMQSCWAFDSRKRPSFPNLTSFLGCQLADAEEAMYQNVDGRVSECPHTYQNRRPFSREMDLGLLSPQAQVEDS
As to the kind of experiment: ADP Glo kinase assay, FLT3-ITD. As to conditions: Km ATP 100 μM, read-out: Enzymatic inhibition, Ki, FLT3-ITD. The class given is biochemical. How it is done:
as §1

Structures are written as SMILES.

CDK6/CyclinD3, sequence (Q00534 whole entry, species assumed): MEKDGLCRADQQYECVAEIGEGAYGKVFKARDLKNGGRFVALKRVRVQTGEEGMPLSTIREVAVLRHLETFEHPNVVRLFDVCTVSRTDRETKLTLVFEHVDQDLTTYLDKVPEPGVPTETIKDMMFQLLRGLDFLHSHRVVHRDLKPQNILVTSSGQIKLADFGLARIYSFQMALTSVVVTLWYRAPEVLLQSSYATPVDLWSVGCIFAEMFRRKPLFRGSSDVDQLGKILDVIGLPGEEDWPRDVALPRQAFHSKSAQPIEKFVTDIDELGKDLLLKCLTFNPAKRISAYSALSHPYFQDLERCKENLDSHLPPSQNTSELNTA
CDK6/CyclinD3, sequence (P30281 whole entry partner, species assumed): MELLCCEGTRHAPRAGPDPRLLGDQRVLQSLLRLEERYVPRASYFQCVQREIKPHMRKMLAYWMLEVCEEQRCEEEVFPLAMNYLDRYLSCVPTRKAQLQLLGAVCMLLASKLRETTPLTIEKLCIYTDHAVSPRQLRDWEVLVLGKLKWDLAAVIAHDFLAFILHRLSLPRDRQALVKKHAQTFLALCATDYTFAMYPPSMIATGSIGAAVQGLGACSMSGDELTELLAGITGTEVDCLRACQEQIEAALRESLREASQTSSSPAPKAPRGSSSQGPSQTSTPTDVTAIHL
CDK4/CyclinD1, sequence (P11802 whole entry, species assumed): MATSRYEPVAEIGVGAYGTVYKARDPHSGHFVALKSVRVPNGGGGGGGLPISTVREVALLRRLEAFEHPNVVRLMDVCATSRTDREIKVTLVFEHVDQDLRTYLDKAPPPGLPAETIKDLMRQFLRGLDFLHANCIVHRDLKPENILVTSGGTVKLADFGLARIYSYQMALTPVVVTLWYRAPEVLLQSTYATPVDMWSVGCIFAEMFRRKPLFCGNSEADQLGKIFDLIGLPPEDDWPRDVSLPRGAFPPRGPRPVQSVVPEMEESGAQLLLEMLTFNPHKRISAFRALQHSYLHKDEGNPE
CDK4/CyclinD1, sequence (P24385 whole entry partner, species assumed): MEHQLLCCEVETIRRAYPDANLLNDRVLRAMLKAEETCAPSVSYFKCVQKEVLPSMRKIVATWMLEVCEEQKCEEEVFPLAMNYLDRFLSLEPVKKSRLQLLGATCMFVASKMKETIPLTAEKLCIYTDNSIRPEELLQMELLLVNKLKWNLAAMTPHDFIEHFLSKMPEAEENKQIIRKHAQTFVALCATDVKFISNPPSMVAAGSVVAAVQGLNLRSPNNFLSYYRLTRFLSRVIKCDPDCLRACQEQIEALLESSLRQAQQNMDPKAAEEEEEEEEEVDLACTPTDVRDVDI
CDK9/CyclinT1, sequence (P50750 whole entry, species assumed): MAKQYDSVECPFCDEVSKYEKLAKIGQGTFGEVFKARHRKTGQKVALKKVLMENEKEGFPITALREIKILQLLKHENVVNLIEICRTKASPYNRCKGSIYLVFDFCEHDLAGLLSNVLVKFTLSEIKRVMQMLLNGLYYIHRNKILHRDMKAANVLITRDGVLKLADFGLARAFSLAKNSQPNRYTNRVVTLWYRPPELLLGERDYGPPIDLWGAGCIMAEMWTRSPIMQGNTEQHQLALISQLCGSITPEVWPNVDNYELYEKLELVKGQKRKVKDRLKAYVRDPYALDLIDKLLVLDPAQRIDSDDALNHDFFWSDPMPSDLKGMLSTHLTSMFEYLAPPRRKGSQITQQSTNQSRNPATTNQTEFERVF
CDK9/CyclinT1, sequence (O60563 whole entry partner, species assumed): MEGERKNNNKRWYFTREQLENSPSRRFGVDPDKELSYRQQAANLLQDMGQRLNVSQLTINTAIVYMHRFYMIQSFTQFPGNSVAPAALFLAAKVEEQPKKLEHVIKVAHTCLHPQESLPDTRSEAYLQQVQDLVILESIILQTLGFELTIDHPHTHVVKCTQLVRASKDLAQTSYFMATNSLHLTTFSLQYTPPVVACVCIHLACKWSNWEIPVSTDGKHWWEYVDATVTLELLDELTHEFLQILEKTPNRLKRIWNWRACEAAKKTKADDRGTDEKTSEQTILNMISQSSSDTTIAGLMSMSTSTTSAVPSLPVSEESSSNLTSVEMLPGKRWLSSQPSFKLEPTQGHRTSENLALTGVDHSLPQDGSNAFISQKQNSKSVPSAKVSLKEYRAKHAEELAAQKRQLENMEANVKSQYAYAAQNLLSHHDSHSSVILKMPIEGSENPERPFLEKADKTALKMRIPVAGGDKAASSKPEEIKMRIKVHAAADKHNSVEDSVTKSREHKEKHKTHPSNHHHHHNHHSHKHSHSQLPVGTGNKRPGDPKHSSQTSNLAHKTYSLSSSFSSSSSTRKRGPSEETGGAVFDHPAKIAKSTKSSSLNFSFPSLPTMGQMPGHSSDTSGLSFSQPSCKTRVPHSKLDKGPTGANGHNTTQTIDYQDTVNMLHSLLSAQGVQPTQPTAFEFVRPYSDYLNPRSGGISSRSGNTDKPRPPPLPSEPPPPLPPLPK

With `CN1CCN(c2ccc(Nc3nccc(-c4cnc5ccc(-c6cnn(C)c6)cn45)n3)nc2)CC1` [Comparator compound B, 4-(6-(1-methyl-1H-pyrazol-4-yl)imidazo[1,2-a]pyridin-3-yl)-N-(5-(4-methylpiperazin-1-yl)pyridin-2-yl)pyrimidin-2-amine, reference compound], the remaining activity at 1 µM at CDK6/CyclinD3 came to 87%; on CDK4/CyclinD1, 76%; at CDK7/CyclinH/Mat1, 70%; at CDK2/CyclinA2, 99%; on CDK1/CyclinB it was 98%. For the same compound, on CDK9/CyclinT1, the Ki – broadly, a measure of affinity in units of concentration, obtained from inhibition or displacement – was more than 0.5 µM. The GI50 (in general, the concentration at which growth is held to half of that of the control) in the assay on MV-4-11 turned out to be 0.007 µM.
As for `CN1CCN(c2ccc(Nc3nccc(-c4cnc5ccc(-c6cccnc6)cn45)n3)nc2)CC1` [Comparator compound C, N-(5-(4-methylpiperazin-1-yl)pyridin-2-yl)-4-(6-(pyridin-3-yl)imidazo[1,2-a]pyridin-3-yl)pyrimidin-2-amine, reference compound], the remaining activity at 1 µM on CDK6/CyclinD3 came out at 87%; at CDK4/CyclinD1 it was 76%; on CDK7/CyclinH/Mat1 it was 75%; on CDK2/CyclinA2, 94%; on CDK1/CyclinB it was 67%. Further, at CDK9/CyclinT1, the Ki was 0.14 µM.
As to `CN1CCN(c2ccc(Nc3nccc(-c4cnc5ccccn45)n3)cn2)CC1` [Compound 1, 4-(Imidazo[1,2-a]pyridin-3-yl)-N-(6-(4-methylpiperazin-1-yl)pyridin-3-yl)pyrimidin-2-amine], the Ki at CDK6/CyclinD3 worked out at 0.043 µM; on CDK9/CyclinT1, 0.002 µM; at CDK4/CyclinD1 it was 0.008 µM; at CDK7/CyclinH/Mat1, 1.09 µM; on FLT3-ITD, 0.002 µM; at CDK2/CyclinA2 it was 0.059 µM. Also, the inhibitory constant (Ki) on CDK1/CyclinB is 0.141 µM. For the same compound, in the assay with MV-4-11, the GI50 was found to be 0.001 µM.
For `Cc1nc2ccc(F)cn2c1-c1ccnc(Nc2ccc(N3CCN(C)CC3)nc2)n1` [Compound 2, 4-(6-Fluoro-2-methylimidazo[1,2-a]pyridin-3-yl)-N-(6-(4-methylpiperazin-1-yl)pyridin-3-yl)pyrimidin-2-amine], the Ki at CDK6/CyclinD3 was 0.054 µM; on CDK9/CyclinT1, 0.168 µM; on CDK4/CyclinD1, 0.055 µM; on CDK7/CyclinH/Mat1, 0.56 µM; on FLT3-ITD, 0.003 µM; at CDK2/CyclinA2, 0.063 µM. Besides, the Ki on CDK1/CyclinB turned out to be 0.152 µM. In addition, the GI50 in the assay with MV-4-11 was found to be 0.078 µM.
For `Cc1cnc(Nc2ccc(N3CCN(C)CC3)nc2)nc1-c1cnc2ccccn12` [Compound 3, 4-(Imidazo[1,2-a]pyridin-3-yl)-5-methyl-N-(6-(4-methylpiperazin-1-yl)pyridin-3-yl) pyrimidin-2-amine], the Ki at CDK6/CyclinD3 worked out at 0.522 µM; at CDK9/CyclinT1, 0.136 µM; at CDK4/CyclinD1 it was 0.046 µM; on CDK7/CyclinH/Mat1, 2.9 µM; on FLT3-ITD, 0.009 µM; at CDK2/CyclinA2, 0.083 µM. In addition, the Ki at CDK1/CyclinB was determined as 0.505 µM. Moreover, the GI50 in the assay with MV-4-11 was 0.032 µM.
`Fc1cnc(Nc2cccnc2)nc1-c1cnc2ccccn12` [Compound 4, 5-Fluoro-4-(imidazo[1,2-a]pyridin-3-yl)-N-(pyridin-3-yl)pyrimidin-2-amine]: the Ki at CDK6/CyclinD3 turned out to be 2.9 µM; at CDK9/CyclinT1, 0.041 µM; on CDK4/CyclinD1, 0.074 µM; at CDK7/CyclinH/Mat1 it was 2.54 µM; at FLT3-ITD, 0.224 µM; at CDK2/CyclinA2, 0.001 µM. Besides, the Ki on CDK1/CyclinB came to 0.002 µM. Also, in the assay with MV-4-11, the GI50 was found to be 0.057 µM.
On to `CN1CCN(c2ccc(Nc3nccc(-c4cnc5ccc(Br)cn45)n3)cn2)CC1` [Compound 5, 4-(6-Bromoimidazo[1,2-a]pyridin-3-yl)-N-(6-(4-methylpiperazin-1-yl)pyridin-3-yl)pyrimidin-2-amine], for which the Ki at CDK6/CyclinD3 was found to be 0.716 µM; at CDK9/CyclinT1 it was 0.005 µM; on CDK4/CyclinD1, 0.712 µM; at CDK7/CyclinH/Mat1, 2.36 µM; on FLT3-ITD, 0.079 µM; on CDK2/CyclinA2 it was 0.098 µM. In addition, at CDK1/CyclinB, the Ki was 0.317 µM. Moreover, the GI50 in the assay with MV-4-11 was 0.007 µM.
